Laboratory results: publication PMC12056667 (Chemical Science, 2025)
“And” between values parts separate entries of the source, which are not always exact repeats. Equal values may be shown once. Read-outs that look alike come from different tables or passages of the source.

What was measured:
[1] = tested on: E. coli TOP10 containing plasmid pBAD-TOPO-Tet(X4); assay: Broth microdilution MIC and checkerboard assay; type: cell-based, Escherichia coli; details: for Antibiotic MIC / Tet(X) inhibitor MIC: alone; for MIC: Escherichia coli; for Combination (antibiotic/inhibitor) MIC: inhibitor: inhibitor in combination with tigecycline; for Combination (antibiotic/inhibitor) MIC: inhibitor / Combination (antibiotic/inhibitor) MIC: antibiotic: lowest FICI; for Combination (antibiotic/inhibitor) MIC: antibiotic: tigecycline in combination with the inhibitor; for FICI / Outcome: with tigecycline
Description: Tet(X4) was sub-cloned from the Tet(X4) pET28b-(+) expression vector via TOPO cloning. The insert was amplified using the taq polymerase with the forward primer 5′- […]-3′ and the reverse primer 5′- […]-3’. Following PCR purification (Thermo Fisher Scientific), the A-tailed PCR product was ligated into the pBAD-TOPO vector using a TOPO cloning kit (Invitrogen) according to the manufacturer's protocol. Following amplification in E. coli NEB5α cells (NEBiolabs), the fidelity of the insert was confirmed by Sanger sequencing (Eurofins). For microbiological experiments, E. coli TOP10 cells were used as the recipient strain. Cells were plated on Mueller-Hinton agar (MHA) plates containing ampicillin at 100 μg mL^−1. The introduction of pBAD-TOPO-Tet(X4) was confirmed by colony PCR. Strains were stored in a freezer at −80 °C in cryopreservation beads.
(§1) MIC tests and checkerboard assays were performed in U-bottom, 96-well microtiter plates using a modified broth microdilution protocol following CLSI guidelines. Cation-adjusted Mueller-Hinton Broth (CAMHB) was prepared fresh on the day of testing.[74] […] Bacterial colonies were selected from an overnight culture on MHA plates (supplemented with 0.2%w/vL-arabinose for E. coli TOP10 containing pBAD-TOPO-Tet(X4)) and were suspended in 0.9% saline solution to achieve a 0.5 McFarland standard. A 100 μL aliquot of this suspension was then diluted into 9.9 mL of CAMHB to yield approximately 1.5 × 10^6 cfu mL^−1. 50 μL of the suspension was then added to each well of a microtiter plates. Plates were incubated at 37 °C for 18 h. At least 2 replicates were conducted for each combination. E. coli TOP10 + pBAD-TOPO-Tet(X4) cells were grown in the absence and presence of 0.2%w/vL-arabinose. Analysis of the MIC and checkerboard results were carried out by visual inspection of growth, with and without resazurin dye, an oxidation–reduction indicator.[75] As a measure of synergy, fractional inhibitory concentration index (FICI) was calculated as FICA + FICB, where FICA and FICB are the MICcombination/MICalone for each agent, respectively.[76] Results were interpreted as follows: synergistic (<0.5), indifferent (1.0–4.0) or antagonistic (>4.0).[64] In cases where the MIC exceeded or was below the measured range, the borderline value was taken to calculate the FIC index.

[2] = tested on: Acinetobacter spp. NT3-1 – tet(X3); assay: microbe, parasite or virus in culture; type: cell-based; details: for Antibiotic MIC: alone
Protocol: (§2) MIC tests and checkerboard assays were performed in U-bottom, 96-well microtiter plates using a modified broth microdilution protocol following CLSI guidelines. Cation-adjusted Mueller-Hinton Broth (CAMHB) was prepared fresh on the day of testing.[74] In brief, assays were set up in a total volume of 100 μL per well and titrations comprised seven 2-fold dilutions of inhibitors and ten 2-fold dilutions of tigecycline in CAMHB. Bacterial colonies were selected from an overnight culture on MHA plates (supplemented with 0.2%w/vL-arabinose for E. coli TOP10 containing pBAD-TOPO-Tet(X4)) and were suspended in 0.9% saline solution to achieve a 0.5 McFarland standard. A 100 μL aliquot of this suspension was then diluted into 9.9 mL of CAMHB to yield approximately 1.5 × 10^6 cfu mL^−1. 50 μL of the suspension was then added to each well of a microtiter plates. Plates were incubated at 37 °C for 18 h. At least 2 replicates were conducted for each combination. E. coli TOP10 + pBAD-TOPO-Tet(X4) cells were grown in the absence and presence of 0.2%w/vL-arabinose. Analysis of the MIC and checkerboard results were carried out by visual inspection of growth, with and without resazurin dye, an oxidation–reduction indicator.[75] As a measure of synergy, fractional inhibitory concentration index (FICI) was calculated as FICA + FICB, where FICA and FICB are the MICcombination/MICalone for each agent, respectively.[76] Results were interpreted as follows: synergistic (<0.5), indifferent (1.0–4.0) or antagonistic (>4.0).[64] In cases where the MIC exceeded or was below the measured range, the borderline value was taken to calculate the FIC index.

[3] = tested on: Salmonella enterica T-2a – tet(X4); assay: microbe, parasite or virus in culture; type: cell-based; details: for Antibiotic MIC: alone, S. enterica T-2a
Protocol: as §2

[4] = tested on: Proteus penneri NT6-2 – tet(X6); assay: microbe, parasite or virus in culture; type: cell-based; details: for Antibiotic MIC: alone, P. penneri NT6-2
Protocol: as §1

[5] = tested on: Acinetobacter baumannii NT5-1 – tet(X5); assay: microbe, parasite or virus in culture; type: cell-based; details: for Antibiotic MIC: alone, A. baumannii NT5-1
Protocol: as §1

[6] = tested on: Escherichia coli T-24a – tet(X4); assay: microbe, parasite or virus in culture; type: cell-based; details: for Antibiotic MIC: alone
Protocol: as §1

Tet(X4) = Tet(X4) (Escherichia coli, UniProt A0A3T0V9Y5); assay: FP competitive displacement of probe 6; type: binding; details: IC50app, 25 nM 6, 40 nM Tet(X4), 5 mM MgCl2, 1 μM FAD, 100 mM Tris pH 7.0, 0.01% Triton X-100
Protocol: A 2× solution containing 80 nM Tet(X4), 2 μM FAD and 10 mM MgCl2 in the assay buffer was dispensed into the first 22 columns of a 384-well black, non-binding microtiter plate (Greiner Bio-One), 12.5 μL per well, using a microplate reagent dispenser. A solution of 2 μM FAD and 10 mM MgCl2 in the assay buffer was dispensed into the remaining columns to serve as a no enzyme control. A 3-fold, 10-point dilution series of substrates and inhibitors was made in DMSO in a V-bottom 96-well plate (Greiner Bio-One) with a highest concentration of 5 mM or 0.5 mM. Into one column was added DMSO with no inhibitor or substrate, to serve as a positive control. Tigecycline was included as a reference on every plate to ensure reproducibility. 0.5 μL of each dilution was transferred in quadruplicate to the 384-well plate containing enzyme solution using a CyBi-Well liquid-handling robot (CyBio). A solution of 50 nM 6 in the assay buffer was then dispensed, with 12.5 μL per well. The plate was briefly centrifuged (1000 rpm), then incubated at ambient temperature for 30 min prior to measuring the FP. Data points were normalised between the positive and negative controls. Normalised % response was plotted as a function of log10([Inhibitor]), and the IC50^app was determined by fitting the data to the equation: Y = Bottom + (top-bottom)/(1 + 10^Log(IC50) − X) × HillSlope in GraphPad Prism 9.4.1, where Y = % response and X = log10([Inhibitor]). Wells with unusual fluorescence intensities were manually identified and removed from the analysis. […]

[7] = induced with 0.2%w/v L-arabinose
[8] = inhibitor in combination with tigecycline, lowest FICI
[9] = tigecycline in combination with the inhibitor, lowest FICI

In the case of `C[C@H]1c2cccc(O)c2C(=O)C2=C(O)[C@]3(O)C(=O)C(C(N)=O)=C(O)[C@@H](N(C)C)[C@@H]3[C@@H](O)[C@@H]21` [Doxycycline], the “Antibiotic MIC” value ([1]; 0.2%w/v L-arabinose (Table S7)) is reported as 32 µg/mL, the “Antibiotic MIC” value ([1]; without L-arabinose induction) is reported as 1 µg/mL and the “Antibiotic MIC” value ([2]; Acinetobacter spp. NT3-1) is reported as 8 µg/mL. For the same molecule, the “Antibiotic MIC” value [3] was 32 µg/mL, the “Antibiotic MIC” value [4] was 16 µg/mL and the “Antibiotic MIC” value [5] was 32 µg/mL. For the same molecule, the “Antibiotic MIC” value ([6]; E. coli T-24a) was 32 µg/mL and the IC50 (Tet(X4); FP assay) was 1580 ± 150 nM.

In the case of `CN1CCN(CCCN2c3ccccc3Sc3ccc(Cl)cc32)CC1` [Prochlorperazine], the MIC ([1]; read-out: Tet(X) Inhibitor MIC, alone, without L-arabinose induction) is reported as 64 µg/mL, the “Tet(X) inhibitor MIC” value [1, 7] is reported as 64 µg/mL and the “Tet(X) inhibitor MIC” value ([1]; induced with 0.2%w/v L-arabinose, listed as prochlorperazine) is reported as 16 to 64 µg/mL. For the same molecule, the “reduction of the tigecycline MIC” value ([1]; at high concentrations of inhibitor, 0.2%w/v L-arabinose) was 2–4 fold, the “Combination (antibiotic/inhibitor) MIC: inhibitor” value ([1]; 0.2%w/v L-arabinose) was 16 µg/mL and the “Combination (antibiotic/inhibitor) MIC: inhibitor” value ([1]; without L-arabinose) was 32 µg/mL. For the same molecule, the “Combination (antibiotic/inhibitor) MIC: antibiotic” value ([1]; 0.2%w/v L-arabinose) was 2 µg/mL, the “Combination (antibiotic/inhibitor) MIC: antibiotic” value ([1]; without L-arabinose) was 0.13 µg/mL and the FICI ([1]; 0.2%w/v L-arabinose) was 0.8. For the same molecule, the Outcome ([1]; 0.2%w/v L-arabinose) was “Indifferent (indifferent (0.5–4.0))”, the FICI ([1]; 0.2%w/v L-arabinose, listed as prochlorperazine) was 0.5-1 and the FICI ([1]; without L-arabinose) was 1. The Outcome ([1]; without L-arabinose) was “indifferent (indifferent (0.5-4.0))”, the MIC ([2]; Acinetobacter, read-out: Tet(X) Inhibitor MIC, alone, Acinetobacter spp. NT3-1) was 8 µg/mL and the “Combination (Antibiotic/Inhibitor) MICs: inhibitor” value [2, 8] was 8 µg/mL. For the same molecule, the “Combination (Antibiotic/Inhibitor) MICs: antibiotic” value [2, 9] was 4 µg/mL, the FICI ([2]; with tigecycline) was 2 and the Outcome ([2]; with tigecycline) was “indifferent (indifferent (0.5-4.0))”. For the same molecule, the MIC ([3]; Salmonella enterica, read-out: Tet(X) Inhibitor MIC) was over 128 µg/mL, the “Combination (Antibiotic/Inhibitor) MICs: inhibitor” value [3, 8] was 64 µg/mL and the “Combination (Antibiotic/Inhibitor) MICs: antibiotic” value [3, 9] was 16 µg/mL. The FICI ([3]; with tigecycline) was 1, the Outcome ([3]; with tigecycline) was “indifferent (indifferent (0.5-4.0))” and the MIC ([4]; Proteus penneri, read-out: Tet(X) Inhibitor MIC) was over 128 µg/mL. The “Combination (Antibiotic/Inhibitor) MICs: inhibitor” value [4, 8] was 128 µg/mL, the “Combination (Antibiotic/Inhibitor) MICs: antibiotic” value [4, 9] was 4 µg/mL and the FICI ([4]; with tigecycline) was 2. The Outcome ([4]; with tigecycline) was “indifferent (indifferent (0.5-4.0))”, the MIC ([5]; Acinetobacter baumannii, read-out: Tet(X) Inhibitor MIC) was 128 µg/mL and the “Combination (Antibiotic/Inhibitor) MICs: inhibitor” value [5, 8] was 64 µg/mL. For the same molecule, the “Combination (Antibiotic/Inhibitor) MICs: antibiotic” value [5, 9] was 1 µg/mL, the FICI ([5]; with tigecycline) was 0.6 and the Outcome ([5]; with tigecycline) was “indifferent (indifferent (0.5-4.0))”. For the same molecule, the MIC ([6]; Escherichia coli, read-out: Tet(X) Inhibitor MIC, alone, E. coli T-24a) was 256 µg/mL, the “Combination (Antibiotic/Inhibitor) MICs: inhibitor” value [6, 8] was 32 µg/mL and the “Combination (Antibiotic/Inhibitor) MICs: antibiotic” value [6, 9] was 8 µg/mL. The FICI ([6]; with tigecycline) was 0.6 and the Outcome ([6]; with tigecycline) was “indifferent (indifferent (0.5-4.0))”.

In the case of `CN(C)c1cc(NC(=O)CNC(C)(C)C)c(O)c2c1C[C@H]1C[C@H]3[C@H](N(C)C)C(O)=C(C(N)=O)C(=O)[C@@]3(O)C(O)=C1C2=O` [Tigecycline], the MIC ([1]; read-out: Tigecycline MIC, L-arabinose 0 %w/v) is reported as 0.25 µg/mL, the MIC ([1]; read-out: Tigecycline MIC, L-arabinose 0.0002 %w/v) is reported as 0.25 µg/mL and the MIC ([1]; read-out: Tigecycline MIC, L-arabinose 0.002 %w/v) is reported as 0.5 µg/mL. For the same molecule, the MIC ([1]; read-out: Tigecycline MIC, L-arabinose 0.02 %w/v) was 2 µg/mL, the MIC ([1]; read-out: Tigecycline MIC, L-arabinose 0.2 %w/v) was 8 µg/mL and the MIC ([1]; read-out: Tigecycline MIC, L-arabinose 0.4 %w/v) was 8 µg/mL. The “Antibiotic MIC” value [1, 7] was 4 µg/mL, the “Antibiotic MIC” value ([1]; without L-arabinose induction) was 0.25 µg/mL and the “Antibiotic MIC” value ([2]; Acinetobacter spp. NT3-1) was 4 µg/mL. For the same molecule, the “Antibiotic MIC” value [3] was 32 µg/mL, the “Antibiotic MIC” value [4] was 8 µg/mL and the “Antibiotic MIC” value [5] was 8 µg/mL. For the same molecule, the “Antibiotic MIC” value ([6]; E. coli T-24a) was 16 µg/mL, the IC50 (Tet(X4); FP assay) was 18.6 ± 4.9 nM and the IC50 (Tet(X4); Tet(X4) (Polarization)) was 22 nM and 19 nM.
